From patent US20210267978A1, “NANOPARTICLE FORMULATIONS OF IKE AND METHODS OF USE THEREOF” (The Trustees of Columbia University in the City of New York, priority 2018, published 2021)

Test system: SUDHL6 xenograft tumor tissue
Assay: qPCR in mouse tumor tissue after one IKE dose
Type: in vivo, NCG mice
Conditions: single dose IKE 50 mg/kg, starting at 3 h
Experimental: NCG mice 6-weeks of age were injected with 10 million SUDHL-6 cells subcutaneously. Visible tumors appeared after 2 weeks. Tumor size was measured by electronic caliper every 2 days and calculated using the formula: 0.5×length×width^2. After another 2 weeks, mice were randomly separated into group of 3 mice per cage with roughly tumor size (1200 mm^3). Mice were dosed at 50 mg/kg IKE, 22 mg/kg IKE, 22 mg/kg IKE PEG-PLGA nanoparticles (equal to 600 mg/kg PEG-PLGA) using IP at one time and samples were collected at 0, 1, 2, 3, 4, 6, and 24 h with three mice per time point. Mice were dosed with Vehicle 1 and Vehicle 2 (600 mg/kg PEG-PLGA) by IP and samples were collected at 24 h. […] Plasma samples were collected and analyzed as described above. […] After drying, the samples were resuspended in 100 μL of methanol and analyzed on the LC-MS with each sample analyzed twice. […] The concentration of IKE in the sample was determined by comparison against a standard curve of IKE in the range of 25 to 2,500 ng/mL. […] Pharmacokinetics parameters of IKE were assessed using Prism fitted with Lognormal of one phase exponential decay. […]
To perform qPCR analysis in mouse tumor tissue, ˜20 mg of tumor tissue was prepared and kept on dry ice. […] RNA was reverse transcribed to cDNA then used in quantitative PCR experiment following the same steps used in cell qPCR experiment.

Structure (SMILES): CC(C)Oc1ccc(C(=O)Cn2ccnc2)cc1-n1c(CN2CCN(C(=O)COc3ccc(Cl)cc3)CC2)nc2ccccc2c1=O [IKE, Imidazole ketone erastin]
- CHAC1 mRNA upregulation in tumor: 2 fold
